Experimental data published in patent US9278914B2, “SARMs and method of use thereof” (UNIVERSITY OF TENNESSEE RESEARCH FOUNDATION, priority 2004, dated 2016).

Assay: Metabolic stability measured in human liver microsomes
Type: in vitro ADME
Protocol: Microsome reactions were performed under either Phase I or “Phase I and II” conditions, where indicated. Compound stocks (10 mM ACN) were initially initially diluted to a concentration of 60 μM (in 60% ACN/H2O) resulting in a “working stock” stock” solution of 100×. Human liver microsomes were utilized at a final concentration of 0.6 mg/ml. Duplicate wells were used for each time point (0, 6, 10, 30, and 60 minutes). Reactions were carried out at 37° C. in a shaking water bath, and the final concentration of solvent was kept constant at 0.6%. The final volume for each reaction was 600 μl, comprised of […] of 100 mM KPO4 buffer, (pH 7.4); 12.6 μl of HLM (from a 20 mg/ml stock); 6 μl of 100×“working stock” drug compound, and 126 μl of NRS “master mix” solution. At each time point, 100 μl of reaction was removed and added to a sample well containing 100 μl of ice-cold, 100% ACN (plus internal standards), to stop the reaction. The NRS “master mix” is a solution of glucose-6-phosphate dehydrogenase, NADP^+, MgCl2, and glucose-6-phosphate, prepared per manufacturer's instructions (BD Biosciences, Waltham, Mass.). Each 6.0 ml stock of NRS “master mix” solution contains 3.8 […], 1.0 ml solution “A” (Cat. #461220), and 0.2 ml solution “B” (Cat. #461200). Human liver microsomes (lot #0610279, Xenotech Corp.) represented a pool of 60 donors. donors.
Samples were centrifuged at 3,000 rpm for 10 minutes at 4° C. to remove debris and precipitate protein. Approximately 160 μl of supernatant was subsequently transferred to a new sample block for analysis. The concentration of parent drug remaining in each well (expressed as percent remaining versus Time ‘0’, at the beginning of the reaction) was measured by LC/MS, as detailed below.
All samples were analyzed on the MDS/Sciex API4000 Q Trap system with electrospray ionization (ESI) in the positive or negative SIM mode, depending on the compounds. The mobile phases were isocratic at 30% A (0.1% formic acid in water) and 70% B (0.1% formic acid in acetonitrile) with a flow rate of 0.4 mL/min. A Phenomenex Luna Phenyl-Hexyl column (60×2.0 mm ID, 6μ) was used. The injection volume was 10 μL. The total run time per sample was 1.6 to 3.0 minutes. […] The percentage of parent drug compound remaining after each time point was determined relative to the initial measured concentration at the beginning of the reaction (T0 min).
For half-life determination, data was fitted using GraphPad Prism, v 4.03 with the non-linear regression equation “one phase exponential decay” defined as: Y=Span*exp(−K*X)+Plateau (decays to Plateau with a first-order rate constant, K). […] Intrinsic Clearance (μl/min/mg protein) is defined as: CLint=0.693*(1/T1/2)*(ml incubation/mg protein)*1000; This equation can also be expressed as (K*1000)/microsome concentration.

C[C@](O)(COc1ccc(Cl)c(F)c1)C(=O)Nc1ccc(C#N)c(C(F)(F)F)c1 [S-II, (S)-3-(4-chloro-3-fluorophenoxy)-N-(4-cyano-3-(trifluoromethyl)phenyl)-2-hydroxy-2-methylpropanamide]
CLint (ul/min/mg) Phase I + II (Phase I + II): <1 µL/min/mg
Half Life (minutes) Phase I + II (Phase I + II, 0.6 μM): Stable
Half Life (minutes) Phase I only (Phase I only, 0.6 μM): Stable
microsomal CLint at 0.6 μM (human, human liver microsomes, pH 7.4, Phase I only, read-out: CLint (ul/min/mg) Phase I only): < 1 µL/min/mg
